# Assay results reported in PMC9544108 (Chemmedchem, 2022).
# Numbered stars: 1 amine (or outer) side, 2 acyl side, 3 side chain; on linkers, the order of the positions; unused ones are H or OH. Square brackets hold non-standard residues; d marks the D form. Peptide text beside a SMILES is read from it. γGlu = O=C(O)[C@H](CCC(=O)[*:2])N[*:1]; βAsp = O=C(O)[C@H](CC(=O)[*:2])N[*:1]; Cya = N[C@@H](CS(=O)(=O)O)C(=O)O
# Legend:
# [1] = system: HT-29 cells; conditions: HT-29, 0.02-1.0 mM, 23 h, crystal violet, no Pb
# [2] = system: Pb-poisoned HT-29 cells; assay: recovery assay of Pb-poisoned cells (crystal violet); assay type: cell-based, human; conditions: HT-29, Pb(NO3)2 0.2 mM, further 23 h; for recovery of Pb-poisoned cells, in words: compound 0.02-1 mM added 1 h later; for viability of Pb-poisoned cells relative to the negative control (recovery): peptide added 1 h later, up to 1 mM (5 equiv.), at least 3 independent experiments
# Method: Human HT‐29 cells were used to investigate the peptides′ detoxification capabilities.[17, 18, 22] Adhered cells were poisoned with Pb(NO3)2 (200 μM) and 1 h later treated with various concentrations of peptides[28] and of the benchmark drugs, ranging from 20 μM to 1 mM that are equal to 0.1–5 equivalents compared with the Pb(II) concentration. After an incubation of 23 h, the cells were washed and quantified with the crystal violet assay.[22, 29] Each experiment included both positive and negative controls, which were either cells left untreated with both metal ions and peptides or only poisoned with Pb(NO3)2, respectively. Each dataset was then compared to the negative control to report the peptide recovery abilities (Figures 3A–B and S2).
# LCMS (ESI) Rt = 0.6 min, observed as [M+H]+
# HT-29 cells were chosen as a representative human cell-line due to their high Pb sensitivity and as their medium, RPMI-1640, is compatible with Pb(II), inhibiting metal precipitation.
# HT-29 cells were grown in 25 mM HEPES RPMI -1640 medium, supplemented with 1% L- […]
# 37 °C and 5% CO2. 96-well plates were prepared such that every well contain ed 10,000 cells in […]
# concentration 0.2 mM). 10 µL of H2O were added to the positive control wells. 60 min after the […]
# (which are 0.1, 0.25, 0.5, 1, 2 and 5 equivalents, respectively). To the positive control wells containing no metal and the negative control wells containing metal but no peptides, 10 µL of H2O were added, respectively. Each condition was performed in triplicates. […]
# gently shaken (50 rpm) for 20 min. […]
# dye was observed and allowed to dry overnight.
# Recovery% = A[PepX]−A[blank] × 100% (S4)
# A[blank] – absorbance of an empty well
# Each experiment was performed on three independent repeats. Values are mean ± SD. […]
# control for the recovery). Values are mean ± SD of at least 3 repeats. […]
# and 1.0 mM. […] Each condition was […]
# [3] = system: HT-29 cells; assay: DCF assay, ROS production; assay type: cell-based, human; conditions: HT-29, peptide 1 mM, with or without Pb(II) 0.2 mM
# Method: ROS production determination in the presence of Pb(II) ions […]
# the cells were allowed to adhere overnight.
# To all wells but the positive control wells, 5 µL of 2.2 mM Pb(NO3)2 were added (final concentration 0.2 mM). 5 µL of H2O were added to the positive control wells. 1 h after, 5 µL of 8 […]
# control wells containing no metal and the negative control wel ls containing metal but no peptide, […]
# removed, the wells were washed with PBS , and 50 µL of PBS were added to each well. 6.75 µL of 2',7'-dichlorodihydrofluorescein diacetate (H 2DCF-DA) (2.1 mM in DMSO) were added (final concentration 0.25 mM) and gently mixed. The plates were incubated for an additional 1 h.
# Fluorescence was then measured at an excitation of 490 nm and an emission of 520 nm.
# ROS production determination in the absence of Pb(II) ions […]
# concentrations of 1 mM. To the positive control well s, 5 µL of H2O were added.
# The plates were incu bated at 37 °C, and 5% CO2 for additional 23 h, after which the medium was […]
# [4] = assay type: in vitro ADME; conditions: human blood serum (Sigma Aldrich), 100 µM peptide, 37 °C, aliquots from 0 min up to 48 h, precipitation with CH3CN:H2O 1:1, LCMS
# Method: (§1) To examine this, we used the Ellman's test,[43] where 8 was incubated in H2O, and the Ellman's reagent was added at given time points (Figure S9).[22] While 8 was started to be slightly oxidized within the first 2 h and was steadily forming disulfide bonds, after 24 h, roughly 40 % of the thiols were still reduced, enabling metal coordination within the experimental time frame of our in vitro study.
# 9 Stability in human blood serum
# A freshly prepared solution of 8 (in H2O) was added to the human blood serum (HBS, purchased from Sigma Aldrich) to reach a final peptide concentration of 100 µM and a volume of 1 mL.
# Samples were pipetted carefully up and down three times and incubated at 37 °C. Aliquots (50 µL) were taken periodically, starting from the addition of the serum (0 min) and continuing after 1 h up to 48 h. Aliquots were poured into a mixture of CH3CN:H2O (1:1; 200 µL) to precipitate the HBS proteins. The samples were cooled on ice for 30 min and centrifuged at 4’4 00 rpm for 10 min. The supernatant was analyzed by LCMS.
# Figure S10. Stability of 8 in human blood serum.
# [5] = Ellman's test, oxidation of thiols to disulfide; assay type: physicochemical; conditions: 8 100 µM in H2O with 10% 1 M Tris buffer pH 8.0, RT, DTNB 300 µM, absorbance 412 nm
# Method: as §1
# Calibration curve: to a 96-well plate with freshly-prepared solutions of Ac-Cys-OMe (12.5-200 µM) in H2O supplemented with 10% 1 M Tris buffer pH 8.0, a fresh solution of Ellman’s reagent (5,5'-dithiobis-(2-nitrobenzoic acid; DTNB; final concentration of 300 µM in H2O supplemented with 12.5 mM sodium acetate) was added. The absorbance of each well at 412 nm was then determined. The average and standard deviation within six wells containing the same AA concentration were calculated and linearly plotted using Origin software .
# Seven 96-well plates were prepared identically with fresh solutions of 8 (100 µM) in H2O supplemented with 10% 1 M Tris buffer pH 8.0, where each condition is replicated in 3 wells. […] The absorbance of each well at 412 nm was then determined , and the concentration of free thiol per well was calculated according to the cal ibration curve. For each time frame, the average and standard deviation were calculated. […]
# [6] = system: Pb-poisoned HT-29 cells; assay: ICP-MS Pb content of cells and supernatant (mode of action); assay type: cell-based, human; conditions: for SN/C, ratio of Pb content in ppb in supernatants and cells: ICP-MS, three independent experiments
# Method: In order to determine the mode of action of 8, by which it enables to achieve a high recovery of Pb‐poisoned HT‐29 cells, inductively coupled plasma mass spectrometry (ICP‐MS) was employed to determine the Pb content of the Pb‐poisoned cells and their respective supernatant. First, HT‐29 cells were poisoned with Pb(NO3)2 (0.2 mM) and the Pb content in the cells and in the medium was determined after 1 and 24 h.[22] The measurement after 1 h was performed to assess the Pb distribution at the time of peptide addition during the recovery experiment and the one after 24 h to reveal the distribution resulting without intervention. At both times, the fraction of intracellular Pb was low and most of the toxic metal was in the medium (Table S10). […] Next, we added 8 to the cells before and after poisoning them with Pb(II) ions to assess whether 8 prevents Pb(II) ions from entering the cells, expels them from the cells or transforms Pb(II) into a non‐toxic complex locally. […] Since treating Pb‐poisoned cells with 8 enables higher viability, despite the fact that their relative intracellular Pb content is elevated, we hypothesize that Pb crosses the cellular membrane from outside as a membrane permeable, non‐toxic Pb(II)‐8 complex.
# Cells with Pb(II) ions only were analyzed after 1 or 24 h incubation with the metal salt as reference values:
# To all wells, 10 µL of 2.2 mM Pb(NO3)2 were added (final concentration 0.2 mM) and the cells were incubated at 37 °C, and 5% CO2 for 1 h, after which samples were prepared for analysis by […]
# Cells treated with 8 were analyzed in two sets that differed in the order of peptide and metal salt […]
# After respective incubation times, the supernatants were homogenized by gently pipetting up and down and 50 µL were transferred and digested with 100 µL HNO3 (70%) for 1 h in a 15 mL tube. […] Pb in the supernatant was then quantified using ICP-MS.
# Since the cells are adherent, residual supernatant was removed from each well and the cells were washed with RPMI (3x200 µL). […] Pb in the cells was then quantified using ICP-MS. […]
structure (smiles),measurement,setting,value
"O=C(O)CN(CCN(CC(=O)O)CC(=O)O)CC(=O)O [EDTA, ethylenediaminetetraacetic acid, reference compound]","effect of compound alone on cell viability, in words",[1],slight toxicity
C[C@@H]1NC(=O)CNC(=O)[C@H](CS)NC(=O)CC[C@@H](C(=O)O)NC(=O)[C@H](C)NC(=O)CNC(=O)[C@H](CS)NC(=O)CC[C@@H](C(=O)O)NC1=O [peptide 2] (cyclo(A[γGlu]CGA[γGlu]CG)),"recovery of Pb-poisoned cells, in words",[2],enhanced viability of cells treated with 1 mM of 2 compared with lin2
C[C@@H]1NC(=O)CNC(=O)[C@H](CS)NC(=O)C[C@@H](C(=O)O)NC(=O)[C@H](C)NC(=O)CNC(=O)[C@H](CS)NC(=O)C[C@@H](C(=O)O)NC1=O [peptide 5] (cyclo(A[βAsp]CGA[βAsp]CG)),"recovery of Pb-poisoned cells, in words",[2],least active one
NC(=O)C[C@@H]1NC(=O)CNC(=O)[C@H](CS)NC(=O)CC[C@@H](C(=O)O)NC(=O)[C@H](CC(N)=O)NC(=O)CNC(=O)[C@H](CS)NC(=O)CC[C@@H](C(=O)O)NC1=O [peptide 8] (cyclo(CGN[γGlu]CGN[γGlu])),"oxidative stress (ROS) compared with untreated cells, in words",[3],decreased the oxidative stress compared to untreated cells
same,viability of Pb-poisoned cells relative to the negative control (recovery),[2],approximately 2.5 times
same,time stable in human blood serum,[4],at least 48 h
same,"effect of compound alone on cell viability, in words",[1],positively affect cell viability
same,time within which oxidation started,[5],≤ 2 h
same,thiols still reduced,"[5]; after 24 h, 3 wells",roughly 40%
same,"supernatant-to-cells ratio of Pb compared with cells not treated with peptide, in words",[6]; 8 added pre- or post-poisoning,reduced by approximately half
same,"SN/C, ratio of Pb content in ppb in supernatants and cells","[6]; condition 3: HT-29 poisoned with 0.2 mM Pb(NO3)2 1 h, then 1 mM 8, further 23 h",56.3 ± 27.5
same,"SN/C, ratio of Pb content in ppb in supernatants and cells","[6]; condition 4: HT-29 given 1 mM 8 for 1 h, then 0.2 mM Pb(NO3)2, further 23 h",43.3 ± 10.23
O=C1CC[C@@H](C(=O)O)NC(=O)[C@H](CS(=O)(=O)O)NC(=O)CNC(=O)[C@H](CS)NC(=O)CC[C@@H](C(=O)O)NC(=O)[C@H](CS(=O)(=O)O)NC(=O)CNC(=O)[C@H](CS)N1 [peptide 9] (cyclo(CG[Cya][γGlu]CG[Cya][γGlu])),viability of Pb-poisoned cells relative to the negative control (recovery),[2],approximately 2.5 times
same,"effect of compound alone on cell viability, in words",[1],no toxicity at all
